Paper PMC6300282, “Sulphamethazine derivatives as immunomodulating agents: New therapeutic strategies for inflammatory diseases” (PLoS ONE, 2018)
≈ marks a conversion by molar mass, not a printed value.

Tests used:
[1] = tested on: Bacillus subtilis (ATCC 6633); experiment: Microplate Alamar Blue Assay, Bacillus subtilis; type: cell-based; conditions: ATCC6633, 200 μg/mL, NI = No inhibition, read-out: Percentage (%) Inhibition, Bacillus subtilis
Method: The anti-bacterial activity of synthesized compound were evaluated by the Microplate Alamar Blue Assay. Staphylococcus aureus (ATCC 25923), Pseudomonas aeruginosa(POA 286), Salmonella typhi (ATCC 14028), Bacillus subtilis ATCC 6633) and Escherichia coli (ATCC 12022) were used in this study as a standard bacterial strains and they were obtained from microbial bank of PCMD, International Center for Chemical and Biological Sciences, University of Karachi, Karachi-75270, Pakistan. The bacterial colonies grown in Trypton Soya Agar (TSA) (Oxoid Limited, UK) were inoculated in Mueller Hinton Broth (MHB) (Oxoid Limited, UK) and incubated overnight at 37 °C. Fully grown bacterial cultures were then diluted to adjust with 0.5 McFarland Turbidity Index (equivalent to 1.5 × 10^8 CFU/mL). Stock solutions (4 mg/mL) of different test compounds were prepared in DMSO and 10μL each of these stock solutions were placed in well of flat bottom, polystyrene, sterile 96-wells plate except the positive control wells (media + bacteria). This gives 200μg/mL concentrations of compounds in final 200 μL solution. Each compound was run in triplicates. Finally, bacterial suspension (5 x 10^6 CFU/mL) was added in each well. Plates were sealed by parafilm and incubated at 37 °C for 18–22 hrs. Next day, 20 μL of 0.02% resazurin sodium salt dye (Chem-Impex-Int’LInc) was added in each well and incubated in shaking incubator at 80 rpm, 37 °C for 2–3 hrs. The color change from blue to reddish pink indicates the growth of bacteria. For quantitative analysis, plates were read at 570 nm and 600 nm in Multiskan GOmicroplate spectrophotometer, (Thermo Scientific, USA). The % inhibition of bacterial growth was calculated using below mentioned formula.
For the calculation of the % difference in reduction between treated and control cells in cytotoxicity/proliferation assays: =(εOX)λ2Aλ1-(εOX)λ1Aλ2oftestagent/(εOX)λ2A°λ1-(εOX)λ1A°λ2ofpositivegrowthcontrol×100

[2] = tested on: nitric oxide (NO) production from LPS activated J774.2 mouse macrophages; experiment: Nitric oxide production (Griess), LPS activated macrophages; type: cell-based; conditions: J774.2 cells, 30 μg/mL LPS, three doses 1, 10, 100 μg/mL, mean ± SD of three, read-out: NO Inhibition (IC50)
Method: The mouse macrophage cell line J774.2 (European Collection of Cell Cultures, UK) was cultured in 75 cc flasks IWAKI (Asahi Techno Glass, Japan) in DMEM Sigma-Aldrich (Steinheim, Germany) supplemented with 10% fetal bovine serum GIBCO (New York, USA)1% streptomycin/penicillin. Flasks were kept at 37 °C in atmosphere of humidified air containing 5% CO2, cells were seeded in 96-well plate (10^6 cells/mL) and were induced by 30 μg/mL e. coli lipopolysaccharide (LPS) (DIFCO Laboratories michigon, USA). The test compounds were added at concentrations of (1, 10 and 100 μg/mL) and plate was incubated at 37 °C in 5% CO2. Nitrite accumulation in culture supernatant was measured using the Griess reagents as described previously.

[3] = tested on: TNF-α production from THP-1 human monocytic leukemia cell line; experiment: TNF-α production (ELISA), LPS stimulated THP-1 cells; type: cell-based; conditions: Homo sapiens; PMA-differentiated THP-1 cells, 50 ng/mL LPS, 4 hours; three doses 1, 10, 100 μg/mL; mean ± SD of three; read-out: TNF-α Inhibition (IC50)
Description: RPMI-1640 (R8758, Sigma Aldrich, St. Louis, USA); L-glutamine (25030081, Gibco, California, USA); D-glucose (G8270, Sigma Aldrich, St. Louis, USA); 2-mercaptoethanol (190242, MP Biomedicals, lllkirch, France); sodium pyruvate (11360–070, Gibco, California, USA); FBS (A11-104, PAA Laboratories, Pasching, Austria); HEPES (H3375, Sigma Aldrich, St. Louis, USA); PMA (151864, MP Biomedicals, lllkirch, France); lipopolysaccharide B of E. coli 0111:B4 (LPS) (3922–25, DIFCO Laboratories, USA); 24-well tissue culture plates (CLS3524, Corning, Dublin, USA); Flat bottom 96-well tissue culture plates (CLS3300, Corning, New York, USA). BSA (151429, MP Biomedicals, lllkirch, France); PBS tablets (41620016–4, Bioworld, Dublin, Ireland); Tween 20 (822184, Merck, Damstadt, Germany); Human TNF-α DuoSet ELISA Kit (DY210, R&D Systems, Minneapolis, USA); Human IL-1β DuoSet ELISA Kit (DY201, R&D Systems, Minneapolis, USA); and Human IL-2 DuoSet ELISA Kit (DY202, R&D Systems, Minneapolis, USA); ELISA plate sealers (DY992, R&D Systems, Minneapolis, USA); Clear flat bottom 96-well microplates (DY990, R&D Systems, Minneapolis, USA). Human monocytic leukemia cells THP-1 were obtained from (European Collection of Cell Cultures, UK). The cells were maintained in RPMI-1640 containing 5.5 mmol/L glucose (BioM Laboratories, Chemical Division, Malaysia), 50 μmol/L mercaptoethanol (Merck Damstadt, Germany), 10% FBS (fetal bovine serum), 2 mmol/L; L-glutamine (PAA Laboratories, GmbH, Pasching, Austria). Cells were grown in 75 cc flasks, harvested and 2.5×10^5 cells/mL was then plated in 24-well tissue culture plates. 20 ng/mL of phorbol-12-myristate-13-acetate (PMA), (SERVA, Heidelberg, Germany) was added followed by incubation for 24 hours at 37 °C in 5% CO2to convert them into macrophage like cell. Cells were then stimulated with E. coli lipopolysacchride B, (DIFCO Laboratories, michigon, USA) at a final concentration of 50 ng/mL and treated with compounds at three different concentration (1, 10 and 100 μg/mL) and then incubated for 4 hours at 37 °C in 5% CO2. The supernatants collected were analyzed for the level of TNF -α using the human TNF-α Duo Set ELISA (R&D Systems, Minneapolis, USA), and according to manufacturer’s instructions.

## Cc1cc(C)nc(NS(=O)(=O)c2ccc(NC(=O)C(Br)CBr)cc2)n1 (stereo not drawn) [Compound 3, 2,3-Dibromo-N-(4-(N-(4,6-dimethylpyrimidin-2-yl)sulfamoyl)phenyl)propanamide]
[1]
  inhibition at 200 µg/mL: < 0%
[2]
  IC50: < 1 µg/mL
[3]
  IC50: < 1 µg/mL

## Cc1cc(C)nc(NS(=O)(=O)c2ccc(NC(=O)c3cccc(CCl)c3)cc2)n1 [Compound 4, 3-(Chloromethyl)-N-(4-(N-(4,6-dimethylpyrimidin-2-yl)sulfamoyl)phenyl)benzamide]
[1]
  inhibition at 200 µg/mL: < 0%
[2]
  IC50: < 1 µg/mL
[3]
  IC50: < 1 µg/mL

## Cc1cc(C)nc(NS(=O)(=O)c2ccc(NC(=O)c3ccc(CCl)cc3)cc2)n1 [Compound 5, 4-(Chloromethyl)-N-(4-(N-(4,6-dimethylpyrimidin-2-yl)sulfamoyl)phenyl)benzamide]
[1]
  inhibition at 200 µg/mL: < 0%
[2]
  IC50: 6.9 ± 1.9 µg/mL (≈ 16 µM)
[3]
  IC50: < 1 µg/mL

## Cc1cc(C)nc(NS(=O)(=O)c2ccc(NC(=O)c3cc(C(F)(F)F)cc(C(F)(F)F)c3)cc2)n1 [Compound 6, N-(4-(N-(4,6-dimethylpyrimidin-2-yl)sulfamoyl)phenyl)-3,5-bis(trifluoromethyl)benzamide]
[1]
  inhibition at 200 µg/mL: < 0%
[2]
  IC50: 7.8 ± 0.3 µg/mL (≈ 15 µM)
[3]
  IC50: < 1 µg/mL

## Cc1cc(C)nc(NS(=O)(=O)c2ccc(NC(=O)c3cc(F)cc(F)c3)cc2)n1 [Compound 7, N-(4-(N-(4,6-dimethylpyrimidin-2-yl)sulfamoyl)phenyl)-3,5-difluorobenzamide]
[1]
  inhibition at 200 µg/mL: < 0%
[2]
  IC50: 8 ± 0.3 µg/mL (≈ 19.1 µM)
[3]
  IC50: 38.9 ± 0.7 µg/mL (≈ 93 µM)
other
  melting point: 237 to 240 °C

## Cc1cc(C)nc(NS(=O)(=O)c2ccc(NC(=O)c3cc(F)cc(C(F)(F)F)c3)cc2)n1 [Compound 8, N-(4-(N-(4,6-dimethylpyrimidin-2-yl)sulfamoyl)phenyl)-3-fluoro-5-(trifluoromethyl)benzamide]
[1]
  inhibition at 200 µg/mL: < 0%
[2]
  IC50: 7.3 ± 0.3 µg/mL (≈ 15.6 µM)
[3]
  IC50: 9.5 ± 0.4 µg/mL (≈ 20.3 µM)

## Cc1cc(C)nc(NS(=O)(=O)c2ccc(NC(=O)c3ccc(C(F)(F)F)c(F)c3)cc2)n1 [Compound 9, N-(4-(N-(4,6-dimethylpyrimidin-2-yl)sulfamoyl)phenyl)-3-fluoro-4-(trifluoromethyl)benzamide]
[1]
  inhibition at 200 µg/mL: < 0%
[2]
  IC50: 7.3 ± 0.4 µg/mL (≈ 15.6 µM)
[3]
  IC50: 2.1 ± 0.2 µg/mL (≈ 4.48 µM)

## Cc1cc(C)nc(NS(=O)(=O)c2ccc(NC(=O)c3ccc(F)c(C(F)(F)F)c3)cc2)n1 [Compound 10, N-(4-(N-(4,6-dimethylpyrimidin-2-yl)sulfamoyl)phenyl)-4-fluoro-3-(trifluoromethyl)benzamide]
[1]
  inhibition at 200 µg/mL: < 0%
[2]
  IC50: 7.3 ± 0.2 µg/mL (≈ 15.6 µM)
[3]
  IC50: 34.5 ± 4.1 µg/mL (≈ 73.6 µM)

## Cc1cc(C)nc(NS(=O)(=O)c2ccc(NC(=O)C(C)Cl)cc2)n1 (stereo not drawn) [Compound 11, 2-Chloro-N-(4-(N-(4,6-dimethylpyrimidin-2-yl)sulfamoyl)phenyl)propanamide]
[1]
  inhibition at 200 µg/mL: 35.1%
[2]
  IC50: 26.3 ± 1.8 µg/mL (≈ 71.3 µM)
[3]
  IC50: > 100 µg/mL
other
  melting point: 256 to 258 °C

## Cc1cc(C)nc(NS(=O)(=O)c2ccc(NC(=O)c3ccc(F)cc3)cc2)n1 [Compound 12, N-(4-(N-(4,6-dimethylpyrimidin-2-yl)sulfamoyl)phenyl)-4-fluorobenzamide]
[1]
  inhibition at 200 µg/mL: < 0%
[2]
  IC50: 10.8 ± 2.1 µg/mL (≈ 27 µM)
[3]
  IC50: 9.9 ± 0.2 µg/mL (≈ 24.7 µM)

## Cc1cc(C)nc(NS(=O)(=O)c2ccc(NC(=O)c3cccc([N+](=O)[O-])c3)cc2)n1 [Compound 13, N-(4-(N-(4,6-dimethylpyrimidin-2-yl)sulfamoyl)phenyl)-3-nitrobenzamide]
[1]
  inhibition at 200 µg/mL: < 0%
[2]
  IC50: 10.9 ± 0.5 µg/mL (≈ 25.5 µM)
[3]
  IC50: 19.5 ± 1 µg/mL (≈ 45.6 µM)
other
  melting point: 251 to 253 °C

## Cc1cc(C)nc(NS(=O)(=O)c2ccc(N)cc2)n1 [compound 1, Sulfamethazine, reference compound]
[1]
  inhibition at 200 µg/mL: < 0%
[2]
  IC50: 18.9 ± 1.7 µg/mL (≈ 67.9 µM)
[3]
  IC50: > 100 µg/mL
